Source: patent US10597388B2, “Pyridazinone herbicides” (FMC CORPORATION, priority 2014, dated 2020)

How the values were obtained:
Experiment in all cases: Test D controlled growth environment herbicide test, pre- and postemergence
Assay type in all cases: in vivo
[1] = tested on: field poppy (Papaver rhoeas)
Procedure, shortened: (§1)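 Rating is visual, 0–100 scale (100 = complete control), made against untreated plants 14–21 d after treatment in controlled growth conditions. Postemergence sprays went onto 1- to 4-leaf plants in peat medium; preemergence sprays onto silt loam after sowing; formulation included a surfactant.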

[2] = tested on: barley, winter (winter barley, Hordeum vulgare)
Procedure, shortened: as §1

[3] = tested on: blackgrass (Alopecurus myosuroides)
Procedure, shortened: as §1

[4] = tested on: speedwell (bird's-eye speedwell, Veronica persica)
Procedure, shortened: as §1

[5] = tested on: galium (catchweed bedstraw, Galium aparine)
Procedure, shortened: as §1

[6] = tested on: chamomile (scentless chamomile, Matricaria inodora)
Procedure, shortened: as §1

[7] = tested on: bromegrass, downy (downy bromegrass, Bromus tectorum)
Procedure, shortened: as §1

[8] = tested on: buckwheat, wild (wild buckwheat, Polygonum convolvulus)
Procedure, shortened: as §1

[9] = tested on: oilseed rape (Brassica napus)
Procedure, shortened: as §1

[10] = tested on: canarygrass (Phalaris minor)
Procedure, shortened: as §1

[11] = tested on: ryegrass, Italian (Italian ryegrass, Lolium multiflorum)
Procedure, shortened: as §1

[12] = tested on: chickweed (common chickweed, Stellaria media)
Procedure, shortened: as §1

[13] = tested on: lambsquarters (Chenopodium album)
Procedure, shortened: as §1

[14] = Postemergence, 31 g ai/ha, scale 0 to 100 (0 no effect, 100 complete control)
[15] = Postemergence, 125 g ai/ha, visual rating on scale 0 (no effect) to 100 (complete control), 14 to 21 d
[16] = Postemergence, 250 g ai/ha, scale 0 to 100 (0 no effect, 100 complete control)
[17] = Preemergence, 62 g ai/ha, scale 0 to 100 (0 no effect, 100 complete control)
[18] = Preemergence, 125 g ai/ha, scale 0 to 100 (0 no effect, 100 complete control)
[19] = Preemergence, 250 g ai/ha, scale 0 to 100 (0 no effect, 100 complete control)
[20] = postemergence, 62 g ai/ha, scale 0 to 100, 0 no effect, 100 complete control

With `Cc1cc(C)c2sc(C)c(-c3c(OC(=O)OC(C)C)c(C)nn(C)c3=O)c2c1` [Compound 67] the “Field Poppy plant response rating” value [1, 14] was 80, the “Plant response rating, Field Poppy” value [1, 15] was 100 and the “Plant response rating, Field Poppy” value [1, 16] was 100. For the same compound, the “Plant response rating (scale of 0 to 100), Field Poppy” value ([1]; Preemergence, 31 g ai/ha) was 100, the “Plant response rating, Field Poppy” value [1, 17] was 100 and the “Plant response rating, Field Poppy” value [1, 18] was 100. The “Plant response rating, Field Poppy” value [1, 19] was 100, the “Plant response rating, Field Poppy” value [1, 20] was 100 and the “Barley, Winter plant response rating” value [2, 14] was 0. For the same compound, the “Plant response rating, Barley, Winter” value [2, 15] was 5, the “Plant response rating, Barley, Winter” value [2, 16] was 10 and the “Plant response rating (scale of 0 to 100), Barley, Winter” value ([2]; Preemergence, 31 g ai/ha) was 0. For the same compound, the “Plant response rating, Barley, Winter” value [2, 17] was 0, the “Plant response rating, Barley, Winter” value [2, 18] was 0 and the “Plant response rating, Barley, Winter” value [2, 19] was 0. For the same compound, the “Plant response rating, Barley, Winter” value [2, 20] was 0, the “Blackgrass plant response rating” value [3, 14] was 70 and the “Plant response rating, Blackgrass” value [3, 15] was 85. The “Plant response rating, Blackgrass” value [3, 16] was 95, the “Plant response rating (scale of 0 to 100), Blackgrass” value ([3]; Preemergence, 31 g ai/ha) was 75 and the “Plant response rating, Blackgrass” value [3, 17] was 75. The “Plant response rating, Blackgrass” value [3, 18] was 75, the “Plant response rating, Blackgrass” value [3, 19] was 80 and the “Plant response rating, Blackgrass” value [3, 20] was 75. For the same compound, the “Speedwell plant response rating” value [4, 14] was 70, the “Plant response rating, Speedwell” value [4, 15] was 75 and the “Plant response rating, Speedwell” value [4, 16] was 100. For the same compound, the “Plant response rating (scale of 0 to 100), Speedwell” value ([4]; Preemergence, 31 g ai/ha) was 80, the “Plant response rating, Speedwell” value [4, 17] was 75 and the “Plant response rating, Speedwell” value [4, 18] was 100. For the same compound, the “Plant response rating, Speedwell” value [4, 19] was 100, the “Plant response rating, Speedwell” value [4, 20] was 75 and the “Galium plant response rating” value [5, 14] was 90. For the same compound, the “Plant response rating, Galium” value [5, 15] was 100, the “Plant response rating, Galium” value [5, 16] was 100 and the “Plant response rating (scale of 0 to 100), Galium” value ([5]; Preemergence, 31 g ai/ha) was 0. For the same compound, the “Plant response rating, Galium” value [5, 17] was 10, the “Plant response rating, Galium” value [5, 18] was 35 and the “Plant response rating, Galium” value [5, 19] was 70. The “Plant response rating, Galium” value [5, 20] was 100, the “Chamomile plant response rating” value [6, 14] was 95 and the “Plant response rating, Chamomile” value [6, 15] was 100. The “Plant response rating, Chamomile” value [6, 16] was 100, the “Plant response rating (scale of 0 to 100), Chamomile” value ([6]; Preemergence, 31 g ai/ha) was 95 and the “Plant response rating, Chamomile” value [6, 17] was 95. For the same compound, the “Plant response rating, Chamomile” value [6, 18] was 100, the “Plant response rating, Chamomile” value [6, 19] was 100 and the “Plant response rating, Chamomile” value [6, 20] was 100. For the same compound, the “Bromegrass, Downy plant response rating” value [7, 14] was 60, the “Plant response rating, Bromegrass, Downy” value [7, 15] was 65 and the “Plant response rating, Bromegrass, Downy” value [7, 16] was 70. For the same compound, the “Plant response rating (scale of 0 to 100), Bromegrass, Downy” value ([7]; Preemergence, 31 g ai/ha) was 25, the “Plant response rating, Bromegrass, Downy” value [7, 17] was 35 and the “Plant response rating, Bromegrass, Downy” value [7, 18] was 35. For the same compound, the “Plant response rating, Bromegrass, Downy” value [7, 19] was 70, the “Plant response rating, Bromegrass, Downy” value [7, 20] was 60 and the “Buckwheat, Wild plant response rating” value [8, 14] was 100. For the same compound, the “Plant response rating, Buckwheat, Wild” value [8, 15] was 100, the “Plant response rating, Buckwheat, Wild” value [8, 16] was 100 and the “Plant response rating (scale of 0 to 100), Buckwheat, Wild” value ([8]; Preemergence, 31 g ai/ha) was 0. The “Plant response rating, Buckwheat, Wild” value [8, 17] was 0, the “Plant response rating, Buckwheat, Wild” value [8, 18] was 0 and the “Plant response rating, Buckwheat, Wild” value [8, 19] was 0. The “Plant response rating, Buckwheat, Wild” value [8, 20] was 100, the “Oilseed Rape plant response rating” value [9, 14] was 70 and the “Plant response rating, Oilseed Rape” value [9, 15] was 85. For the same compound, the “Plant response rating, Oilseed Rape” value [9, 16] was 90, the “Plant response rating (scale of 0 to 100), Oilseed Rape” value ([9]; Preemergence, 31 g ai/ha) was 10 and the “Plant response rating, Oilseed Rape” value [9, 17] was 20. For the same compound, the “Plant response rating, Oilseed Rape” value [9, 18] was 25, the “Plant response rating, Oilseed Rape” value [9, 19] was 25 and the “Plant response rating, Oilseed Rape” value [9, 20] was 80. The “Canarygrass plant response rating” value [10, 14] was 75, the “Plant response rating, Canarygrass” value [10, 15] was 85 and the “Plant response rating, Canarygrass” value [10, 16] was 95. The “Plant response rating (scale of 0 to 100), Canarygrass” value ([10]; Preemergence, 31 g ai/ha) was 40, the “Plant response rating, Canarygrass” value [10, 17] was 85 and the “Plant response rating, Canarygrass” value [10, 18] was 90. For the same compound, the “Plant response rating, Canarygrass” value [10, 19] was 95, the “Plant response rating, Canarygrass” value [10, 20] was 85 and the “Ryegrass, Italian plant response rating” value [11, 14] was 85. The “Plant response rating, Ryegrass, Italian” value [11, 15] was 98, the “Plant response rating, Ryegrass, Italian” value [11, 16] was 100 and the “Plant response rating (scale of 0 to 100), Ryegrass, Italian” value ([11]; Preemergence, 31 g ai/ha) was 75. The “Plant response rating, Ryegrass, Italian” value [11, 17] was 80, the “Plant response rating, Ryegrass, Italian” value [11, 18] was 85 and the “Plant response rating, Ryegrass, Italian” value [11, 19] was 90. For the same compound, the “Plant response rating, Ryegrass, Italian” value [11, 20] was 90, the “Chickweed plant response rating” value [12, 14] was 85 and the “Plant response rating, Chickweed” value [12, 15] was 100. For the same compound, the “Plant response rating, Chickweed” value [12, 16] was 100, the “Plant response rating (scale of 0 to 100), Chickweed” value ([12]; Preemergence, 31 g ai/ha) was 100 and the “Plant response rating, Chickweed” value [12, 17] was 100. The “Plant response rating, Chickweed” value [12, 18] was 100, the “Plant response rating, Chickweed” value [12, 19] was 100 and the “Plant response rating, Chickweed” value [12, 20] was 100. The “Lambsquarters plant response rating” value [13, 14] was 90, the “Plant response rating, Lambsquarters” value [13, 15] was 100 and the “Plant response rating, Lambsquarters” value [13, 16] was 100. The “Plant response rating (scale of 0 to 100), Lambsquarters” value ([13]; Preemergence, 31 g ai/ha) was 95, the “Plant response rating, Lambsquarters” value [13, 17] was 100 and the “Plant response rating, Lambsquarters” value [13, 18] was 100. The “Plant response rating, Lambsquarters” value [13, 19] was 100 and the “Plant response rating, Lambsquarters” value [13, 20] was 100.
